This passage reports IC50 results from patent US10654831B2, “Antiproliferative pyrimidine-based compounds” (G1 Therapeutics, Inc., priority 2016, dated 2020).

Structures are written as SMILES.

Type in all cases: biochemical
In assay [1] the target is CDK2/CycE (Homo sapiens (Human), UniProt P24941). Nature of the assay: CDK2/CycE kinase assay (Caliper microfluidic). The following applies: at Km for ATP. The method, then: (§1) Selected compounds disclosed herein were tested in CDK4/cyclinD1, CDK2/CycA and CDK2/cyclinE kinase assays by Nanosyn (Santa Clara, Calif.) to determine their inhibitory effect on these CDKs. The assays were performed using microfluidic kinase detection technology (Caliper Assay Platform). The compounds were tested in 12-point dose-response format in singlicate at Km for ATP. Phosphoacceptor substrate peptide concentration used was 1 μM for all assays and Staurosporine was used as the reference compound for all assays. Specifics of each assay are as described below:
CDK2/CyclinE: Enzyme concentration: 0.28 nM; ATP concentration: 100 μM; Incubation time: 1 hr.

Assay [2] has as its target CDK7/CycH/MAT1 (Homo sapiens (Human), UniProt P50613). Nature of the assay: CDK7/CycH/MAT1 kinase assay.
Assay [3] concerns the target CDK2/CycA (Homo sapiens (Human), UniProt P24941). In words: CDK2/CycA kinase assay (Caliper microfluidic). The following applies: at Km for ATP. The method, then:
as §1
CDK2/CyclinA: Enzyme concentration: 0.2 nM; ATP concentration: 50 μM; Incubation time: 3 hr.

Assay [4] concerns the target CDK6/CycD3 (Homo sapiens (Human), UniProt Q00534). Nature of the assay: CDK6/CycD3 kinase assay. The method, then: [The procedure below names another target; the source lists this target under the same test.] Selected compounds disclosed herein were tested in CDK4/cyclinD1, CDK2/CycA and CDK2/cyclinE kinase assays by Nanosyn (Santa Clara, Calif.) to determine their inhibitory effect on these CDKs. The assays were performed using microfluidic kinase detection technology (Caliper Assay Platform). The compounds were tested in 12-point dose-response format in singlicate at Km for ATP. Phosphoacceptor substrate peptide concentration used was 1 μM for all assays and Staurosporine was used as the reference compound for all assays.

For assay [5], the target named is CDK4/CycD (Homo sapiens (Human), UniProt P11802). In words: CDK4/CycD kinase assay (Caliper microfluidic). The following applies: at Km for ATP. The method, then: as §1
Sequence of CDK4/CycD (P11802 whole entry): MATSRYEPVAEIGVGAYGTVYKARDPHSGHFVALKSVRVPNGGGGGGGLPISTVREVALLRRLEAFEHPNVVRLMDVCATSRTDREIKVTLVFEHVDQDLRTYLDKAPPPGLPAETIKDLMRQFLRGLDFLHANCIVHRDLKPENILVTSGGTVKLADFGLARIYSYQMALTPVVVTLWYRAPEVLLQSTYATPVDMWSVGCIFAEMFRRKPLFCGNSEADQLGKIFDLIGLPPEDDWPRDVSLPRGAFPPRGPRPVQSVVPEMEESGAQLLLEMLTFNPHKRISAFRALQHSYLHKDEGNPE
Sequence of CDK4/CycD (P24385 whole entry partner): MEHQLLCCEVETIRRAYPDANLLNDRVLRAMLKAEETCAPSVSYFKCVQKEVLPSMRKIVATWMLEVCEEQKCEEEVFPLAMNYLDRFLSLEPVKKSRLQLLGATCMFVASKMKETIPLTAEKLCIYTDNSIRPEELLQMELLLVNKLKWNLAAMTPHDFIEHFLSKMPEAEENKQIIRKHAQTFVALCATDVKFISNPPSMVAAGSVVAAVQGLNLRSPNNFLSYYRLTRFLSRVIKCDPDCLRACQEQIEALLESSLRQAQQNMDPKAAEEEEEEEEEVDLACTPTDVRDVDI
CDK4/CyclinD1: Enzyme concentration: 1 nM; ATP concentration: 200 μM; Incubation time: 10 hr.

For assay [6], the target named is CDK9/CycT (Homo sapiens (Human), UniProt P50750). Nature of the assay: CDK9/CycT kinase assay.
Sequence of CDK9/CycT (P50750 whole entry): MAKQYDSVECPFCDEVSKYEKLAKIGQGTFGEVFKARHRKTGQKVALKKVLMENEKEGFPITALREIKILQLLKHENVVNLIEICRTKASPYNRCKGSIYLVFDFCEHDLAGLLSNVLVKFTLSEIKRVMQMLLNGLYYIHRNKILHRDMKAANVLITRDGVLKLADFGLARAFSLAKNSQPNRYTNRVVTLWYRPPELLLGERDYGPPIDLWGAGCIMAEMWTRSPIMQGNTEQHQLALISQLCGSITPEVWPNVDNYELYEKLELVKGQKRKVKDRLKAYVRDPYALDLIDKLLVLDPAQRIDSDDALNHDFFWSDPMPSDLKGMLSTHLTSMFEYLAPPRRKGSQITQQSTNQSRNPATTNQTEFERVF
Sequence of CDK9/CycT (O60563 whole entry partner): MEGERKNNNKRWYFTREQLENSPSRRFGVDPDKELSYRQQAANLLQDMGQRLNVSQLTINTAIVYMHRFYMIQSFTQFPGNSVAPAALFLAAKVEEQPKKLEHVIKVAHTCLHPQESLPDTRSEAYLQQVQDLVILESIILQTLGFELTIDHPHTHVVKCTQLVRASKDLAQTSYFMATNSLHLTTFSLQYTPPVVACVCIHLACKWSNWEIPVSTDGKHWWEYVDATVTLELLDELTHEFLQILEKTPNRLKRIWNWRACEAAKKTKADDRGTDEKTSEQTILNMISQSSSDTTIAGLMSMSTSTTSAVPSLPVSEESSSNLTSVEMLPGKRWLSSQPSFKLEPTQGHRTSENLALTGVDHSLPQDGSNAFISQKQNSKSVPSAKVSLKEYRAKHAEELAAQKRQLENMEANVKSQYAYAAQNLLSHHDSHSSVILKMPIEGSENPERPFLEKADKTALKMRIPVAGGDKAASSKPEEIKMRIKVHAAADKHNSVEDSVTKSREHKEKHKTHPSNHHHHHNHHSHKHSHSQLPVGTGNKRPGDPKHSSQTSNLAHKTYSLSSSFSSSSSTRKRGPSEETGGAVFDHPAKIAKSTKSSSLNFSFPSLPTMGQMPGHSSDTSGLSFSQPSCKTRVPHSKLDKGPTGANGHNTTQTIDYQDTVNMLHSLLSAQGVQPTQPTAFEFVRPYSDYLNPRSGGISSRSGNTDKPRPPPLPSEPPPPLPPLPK
In assay [7] the target is CDK5/p35 (Homo sapiens (Human), UniProt Q00535). Nature of the assay: CDK5/p35 kinase assay.
Sequence of CDK5/p35 (Q00535 whole entry): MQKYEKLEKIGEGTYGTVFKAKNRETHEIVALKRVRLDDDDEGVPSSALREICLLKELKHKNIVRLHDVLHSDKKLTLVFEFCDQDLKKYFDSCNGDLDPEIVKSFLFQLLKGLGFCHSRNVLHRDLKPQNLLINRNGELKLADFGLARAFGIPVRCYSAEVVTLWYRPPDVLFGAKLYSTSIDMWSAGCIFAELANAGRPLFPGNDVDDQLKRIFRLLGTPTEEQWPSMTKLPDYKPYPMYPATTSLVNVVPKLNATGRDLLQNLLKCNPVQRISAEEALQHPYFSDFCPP
Sequence of CDK5/p35 (Q15078 whole entry partner): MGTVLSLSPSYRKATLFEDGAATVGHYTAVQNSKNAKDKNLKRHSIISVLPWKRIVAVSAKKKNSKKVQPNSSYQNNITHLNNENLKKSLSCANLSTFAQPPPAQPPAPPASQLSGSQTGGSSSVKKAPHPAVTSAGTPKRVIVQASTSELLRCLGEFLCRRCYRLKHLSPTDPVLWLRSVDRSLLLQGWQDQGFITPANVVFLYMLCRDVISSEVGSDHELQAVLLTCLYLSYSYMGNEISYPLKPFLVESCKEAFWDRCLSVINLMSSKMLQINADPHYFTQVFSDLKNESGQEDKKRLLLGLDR
Assay [8] concerns the target CDK5/p25 (Homo sapiens (Human), UniProt Q00535). Nature of the assay: CDK5/p25 kinase assay.

Sequence of CDK6/CycD3 (Q00534 whole entry): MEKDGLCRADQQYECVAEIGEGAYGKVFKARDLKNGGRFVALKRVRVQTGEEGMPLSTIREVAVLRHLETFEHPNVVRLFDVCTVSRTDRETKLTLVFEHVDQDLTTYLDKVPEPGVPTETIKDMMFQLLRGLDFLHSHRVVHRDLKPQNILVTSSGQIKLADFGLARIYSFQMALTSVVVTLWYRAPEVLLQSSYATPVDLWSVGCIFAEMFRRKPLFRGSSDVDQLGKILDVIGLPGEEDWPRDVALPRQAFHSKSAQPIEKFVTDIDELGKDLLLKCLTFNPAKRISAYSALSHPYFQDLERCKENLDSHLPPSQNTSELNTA
Sequence of CDK6/CycD3 (P30281 whole entry partner): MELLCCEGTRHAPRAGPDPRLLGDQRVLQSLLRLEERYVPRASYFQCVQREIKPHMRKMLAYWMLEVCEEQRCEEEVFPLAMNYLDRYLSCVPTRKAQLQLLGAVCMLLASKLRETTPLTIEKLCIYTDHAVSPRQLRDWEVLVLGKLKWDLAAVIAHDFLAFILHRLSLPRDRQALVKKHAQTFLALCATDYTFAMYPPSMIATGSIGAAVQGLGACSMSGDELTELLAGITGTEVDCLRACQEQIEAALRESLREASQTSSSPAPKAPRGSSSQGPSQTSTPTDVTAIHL
Sequence of CDK7/CycH/MAT1 (P50613 whole entry): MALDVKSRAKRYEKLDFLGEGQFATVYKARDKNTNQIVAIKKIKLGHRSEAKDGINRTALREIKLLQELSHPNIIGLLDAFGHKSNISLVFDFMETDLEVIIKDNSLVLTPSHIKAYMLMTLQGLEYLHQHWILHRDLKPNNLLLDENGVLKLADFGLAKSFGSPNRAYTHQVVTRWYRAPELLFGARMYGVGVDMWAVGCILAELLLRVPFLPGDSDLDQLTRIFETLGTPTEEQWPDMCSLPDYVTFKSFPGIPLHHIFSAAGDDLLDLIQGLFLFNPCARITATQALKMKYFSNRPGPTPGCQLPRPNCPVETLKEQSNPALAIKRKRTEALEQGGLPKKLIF
Sequence of CDK7/CycH/MAT1 (P51946 whole entry partner): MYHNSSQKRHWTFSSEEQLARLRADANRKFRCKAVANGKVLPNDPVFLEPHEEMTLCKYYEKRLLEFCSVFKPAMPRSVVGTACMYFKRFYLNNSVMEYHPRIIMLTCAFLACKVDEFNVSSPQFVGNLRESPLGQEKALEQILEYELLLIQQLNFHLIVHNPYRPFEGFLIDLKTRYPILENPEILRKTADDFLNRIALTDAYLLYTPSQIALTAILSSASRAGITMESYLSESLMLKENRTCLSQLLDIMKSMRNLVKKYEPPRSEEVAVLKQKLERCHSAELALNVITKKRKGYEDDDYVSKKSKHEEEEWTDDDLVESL
Sequence of CDK7/CycH/MAT1 (P51948 whole entry partner): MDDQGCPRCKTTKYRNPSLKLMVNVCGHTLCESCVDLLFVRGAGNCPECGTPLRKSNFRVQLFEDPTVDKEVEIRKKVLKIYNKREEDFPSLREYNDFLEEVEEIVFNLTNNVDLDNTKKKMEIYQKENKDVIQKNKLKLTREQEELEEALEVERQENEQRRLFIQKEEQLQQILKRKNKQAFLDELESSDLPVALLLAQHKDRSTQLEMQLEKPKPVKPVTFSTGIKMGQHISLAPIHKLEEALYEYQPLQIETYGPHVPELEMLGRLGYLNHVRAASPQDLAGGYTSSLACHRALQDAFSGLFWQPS
Sequence of CDK5/p25 (Q00535 whole entry): as the sequence (Q00535 whole entry) above

As a reminder, the IC50 is the concentration needed to halve the response being measured. Read a high IC50 as lower potency. In the case of `CN1CCN(c2ccc(Nc3nccc(N4C(=O)NCC45CCCCC5)n3)nc2)CC1` [compound 6, 1-(2-{[5-(4-methylpiperazin-1-yl)pyridin-2-yl]amino}pyrimidin-4-yl)-1,3-diazaspiro[4.5]decan-2-one], the IC50 in assay [1] was above 100 µM; in assay [2], 95.9 µM; in assay [3], above 100 µM; in assay [4], 4.98 µM; in assay [5], 1 µM; in assay [6], 9.63 µM. In addition, the IC50 in assay [7] and in assay [8] was above 100 µM throughout.
In the case of `CN1CCN(c2ccc(Nc3nccc(N4C(=O)N(C)CC45CCCCC5)n3)nc2)CC1` [compound 8, 3-Methyl-1-(2-{[5-(4-methylpiperazin-1-yl)pyridin-2-yl]amino}pyrimidin-4-yl)-1,3-diazaspiro[4.5]decan-2-one], the IC50 is above 100 µM in assay [1]; above 100 µM in assay [2]; above 100 µM in assay [3]; 16.2 µM in assay [4]; 3.27 µM in assay [5]; above 100 µM in assay [6]. In addition, the IC50 in assay [7] and in assay [8] was above 100 µM throughout.
On to `CN1CCN(c2ccc(Nc3nccc(N4C(=O)N(Cc5ccccc5)CC45CCCCC5)n3)nc2)CC1` [compound 10, 3-benzyl-1-(2-{[5-(4-methylpiperazin-1-yl)pyridin-2-yl]amino}pyrimidin-4-yl)-1,3-diazaspiro[4.5]decan-2-one], for which the IC50 in assay [1] was above 100 µM; in assay [2], above 100 µM; in assay [3], above 100 µM; in assay [4], 35.8 µM; in assay [5], 2.71 µM; in assay [6] it was above 100 µM. Further, the IC50 in assay [7] and in assay [8] was above 100 µM each time.
For `CN1CCN(c2ccc(Nc3nccc(N4CCNC4=O)n3)nc2)CC1` [compound 16, 1-(2-{[5-(4-methylpiperazin-1-yl)pyridin-2-yl]amino}pyrimidin-4-yl)imidazolidin-2-one], the IC50 in assay [1] is above 100 µM; in assay [2], 29.4 µM; in assay [3], above 100 µM; in assay [4], 3.4 µM; in assay [5], 8.1 µM; in assay [6], 9.3 µM. In addition, the IC50 in assay [7] is 73 µM; in assay [8], 95 µM.
With `CN1CCN(c2ccc(Nc3nccc(N4CC(=O)NCC45CCCCC5)n3)nc2)CC1` [compound 20, 1-(2-{[5-(4-Methylpiperazin-1-yl)pyridin-2-yl]amino}pyrimidin-4-yl)-1,4-diazaspiro[5.5]undecan-3-one], the IC50 in assay [1] was above 100 µM; in assay [2] it was above 100 µM; in assay [3] it was above 100 µM; in assay [4], 1 µM; in assay [5] it was 0.44 µM; in assay [6], 0.75 µM. For the same compound, the values for the IC50 in assay [7] and in assay [8] were 38 µM and 39 µM, respectively.
On to `CC(C)C1CC(=O)NN1c1ccnc(Nc2ccc(N3CCN(C)CC3)cn2)n1` (stereo not shown) [compound 28, 5-Isopropyl-1-(2-{[5-(4-methylpiperazin-1-yl)pyridin-2-yl]amino}pyrimidin-4-yl)pyrazolidin-3-one], for which the IC50 in assay [4] and in assay [5] was above 100 µM throughout.
As for `CN1CCN(c2ccc(Nc3nccc(N4CCNC(=O)C4)n3)nc2)CC1` [compound 32, 4-(2-{[5-(4-Methylpiperazin-1-yl)pyridin-2-yl]amino}pyrimidin-4-yl)piperazin-2-one], the figures for the IC50 in assay [4], in assay [5] and in assay [6] were 51 µM, 14.4 µM and 22.9 µM, respectively.
Turning to `C[C@H]1CNC(=O)CN1c1ccnc(Nc2ccc(N3CCN(C)CC3)cn2)n1` [compound 40, (5S)-5-Methyl-4-(2-{[5-(4-methylpiperazin-1-yl)pyridin-2-yl]amino}pyrimidin-4-yl)piperazin-2-one], the IC50 in assay [1] is 71 µM; in assay [3], 88 µM; in assay [4], 5.7 µM; in assay [5], 1.7 µM.
In the case of `CC(C)[C@H]1CNC(=O)N1c1ccnc(Nc2ccc(N3CCN(C)CC3)cn2)n1` [compound 46, (5S)-5-Isopropyl-1-(2-{[5-(4-methylpiperazin-1-yl)pyridin-2-yl]amino}pyrimidin-4-yl)imidazolidin-2-one], the IC50 stood at 23 µM in assay [1], 9.7 µM in assay [3], 3.3 µM in assay [4] and 0.761 µM in assay [5].
For `C[C@H]1CNC(=O)N1c1ccnc(Nc2ccc(N3CCN(C)CC3)cn2)n1` [compound 52, (5S)-5-methyl-1-(2-{[5-(4-methylpiperazin-1-yl)pyridin-2-yl]amino}pyrimidin-4-yl)imidazolidin-2-one], in that order: 57 µM, 35.5 µM, 4 µM and 1.5 µM.
As to `CN1CCN(c2ccc(Nc3nccc(N4C(c5ccccc5)=NCC45CCCCC5)n3)nc2)CC1` [compound 53, N-(5-(4-methylpiperazin-1-yl)pyridin-2-yl)-4-(2-phenyl-1,3-diazaspiro[4.5]dec-2-en-1-yl)pyrimidin-2-amine], the IC50 in assay [1] was above 100 µM; in assay [2], above 100 µM; in assay [3] it was above 100 µM; in assay [4] it was 71.3 µM; in assay [5], above 100 µM; in assay [6] it was above 100 µM. Further, the IC50 in assay [7] and in assay [8] was above 100 µM in each case.
On to `CN1CCN(c2ccc(Nc3nccc(N4C(c5ccoc5)=NCC45CCCCC5)n3)nc2)CC1` [compound 54, 4-(2-(furan-3-yl)-1,3-diazaspiro[4.5]dec-2-en-1-yl)-N-(5-(4-methylpiperazin-1-yl)pyridin-2-yl)pyrimidin-2-amine], for which the IC50 in assay [1], in assay [2], in assay [3], in assay [4], in assay [5] and in assay [6] was above 100 µM in each case. The 50% inhibitory concentration (IC50) in assay [7] and in assay [8] was above 100 µM each time.
Take `CN1CCN(c2ccc(Nc3nccc(N4C(c5ccsc5)=NCC45CCCCC5)n3)nc2)CC1` [compound 55, N-(5-(4-methylpiperazin-1-yl)pyridin-2-yl)-4-(2-(thiophen-3-yl)-1,3-diazaspiro[4.5]dec-2-en-1-yl)pyrimidin-2-amine]: the IC50 in assay [1], in assay [2], in assay [3], in assay [4], in assay [5] and in assay [6] was above 100 µM in each case. Besides, the IC50 in assay [7] and in assay [8] was above 100 µM throughout.
In the case of `CC[C@H]1CC(=O)NN1c1ccnc(Nc2ccc(N3CCN(C)CC3)cn2)n1` [compound 56, (S)-5-ethyl-1-(2-((5-(4-methylpiperazin-1-yl)pyridin-2-yl)amino)pyrimidin-4-yl)pyrazolidin-3-one], the IC50 in assay [1] is above 100 µM; in assay [3], above 100 µM; in assay [4], 33 µM; in assay [5], 4 µM.
